Measured values published in patent US6436955B1, “Crystal modification A of 8-cyano-1-cyclopropyl-7-(is,6s-2,8-diazabicyclo[4.3.0]nonan-8-yl)-6-fluoro-1,4-dihydro-4-oxo-3-quinolinecarboxylic acid” (Bayer Aktiengesellschaft, priority 1998, dated 2002).

Experiment: Water absorption from the atmosphere at 95% relative atmospheric humidity
Format: physicochemical
Conditions: relative atmospheric humidity of 95% (saturated solution of Na2HPO4×12 H2O with sediment in water); within one day
Description: At a relative atmospheric humidity of 95% (established using a saturated solution of Na2HPO4×12 H2O with sediment in water), the solid obtained according to this procedure absorbs approximately 17% by weight of water within one day.
At a relative atmospheric humidity of 95% (established using a saturated solution of Na2HPO4×12 H2O with sediment in water), the solid obtained according to this procedure absorbs approximately 3% by weight of water within one day.

| Structure (SMILES) | water absorbed by the solid |
| --- | --- |
| N#Cc1c(N2C[C@@H]3CCCN[C@@H]3C2)c(F)cc2c(=O)c(C(=O)O)cn(C3CC3)c12 [Comparative Example, 8-cyano-1-cyclopropyl-7-(1S,6S-2,8-diazabicyclo[4.3.0]nonan-8-yl)-6-fluoro-1,4-dihydro-4-oxo-3-quinolinecarboxylic acid] | approximately 17 % by weight |
| N#Cc1c(N2C[C@@H]3CCCN[C@@H]3C2)c(F)cc2c(=O)c(C(=O)O)cn(C3CC3)c12 [Example 1, 8-cyano-1-cyclopropyl-7-(1S,6S-2,8-diazabicyclo[4.3.0]nonan-8-yl)-6-fluoro-1,4-dihydro-4-oxo-3-quinolinecarboxylic acid] | approximately 3 % by weight |
